Measurements published in patent US9458113B2 (Boehringer Ingelheim International GmbH, priority 2014, dated 2016).

Target: Human neutrophil elastase (Homo sapiens (Human), UniProt P08246)
Experiment: Human Neutrophil Elastase Assay
Assay type: biochemical
Conditions: substrate MeOSuc-Ala-Ala-Pro-Val-AMC 250 μM, pH 7.5

Chain of Human neutrophil elastase (P08246 30-247): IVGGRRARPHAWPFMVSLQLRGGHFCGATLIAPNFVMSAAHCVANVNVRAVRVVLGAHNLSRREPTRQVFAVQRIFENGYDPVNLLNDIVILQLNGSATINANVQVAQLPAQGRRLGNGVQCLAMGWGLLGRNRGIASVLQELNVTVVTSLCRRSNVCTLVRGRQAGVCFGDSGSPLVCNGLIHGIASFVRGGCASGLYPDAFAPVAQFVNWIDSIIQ

IC50	SMILES
6.9 nM	CN1C(=O)N(c2cccc(C(F)(F)F)c2)C2=C(C(=O)CC2)C1c1ccc(C#N)cc1C(=O)NCc1cn(C)cn1 (centres unmarked) [Example 1.54]
4.8 nM	CN1C(=O)N(c2cccc(C(F)(F)F)c2)C2=C(C(=O)CC2)C1c1ccc(C#N)cc1C(=O)NCc1cnn(C)c1 (centres unmarked) [Example 1.55]
5.4 nM	CN1C(=O)N(c2cccc(C(F)(F)F)c2)C2=C(C(=O)CC2)C1c1ccc(C#N)cc1C(=O)NCc1ccnn1C (centres unmarked) [Example 1.56]
2.4 nM	CN1C(=O)N(c2cccc(C(F)(F)F)c2)C2=C(C(=O)CC2)C1c1ccc(C#N)cc1C(=O)NCc1nccn1C (centres unmarked) [Example 1.58]
6 nM	CN1C(=O)N(c2cccc(C(F)(F)F)c2)C2=C(C(=O)CC2)C1c1ccc(C#N)cc1C(=O)NCc1nncn1C (centres unmarked) [Example 1.61]
2.5 nM	CN1C(=O)N(c2cccc(C(F)(F)F)c2)C2=C(C(=O)CC2)C1c1ccc(C#N)cc1C(=O)NCc1nnnn1C (centres unmarked) [Example 1.62]
4.5 nM	CN1C(=O)N(c2cccc(C(F)(F)F)c2)C2=C(C(=O)CC2)C1c1ccc(C#N)cc1C(=O)NCCN1CCOCC1 (centres unmarked) [Example 1.76]
3 nM	CN1C(=O)N(c2cccc(C(F)(F)F)c2)C2=C(C(=O)CC2)C1c1ccc(C#N)cc1C(=O)N1CCC(N2CCOCC2)C1 (centres unmarked) [Example 1.79]
6 nM	CN1C(=O)N(c2cccc(C(F)(F)F)c2)C2=C(C(=O)CC2)C1c1ccc(C#N)cc1C(=O)NCC(=O)N1CCOCC1 (centres unmarked) [Example 1.80]
1.6 nM	CN(CCN1CCOCC1)C(=O)c1cc(C#N)ccc1C1C2=C(CCC2=O)N(c2cccc(C(F)(F)F)c2)C(=O)N1C (centres unmarked) [Example 1.81]
2.2 nM	CC(=O)N[C@H]1CCN(C(=O)c2cc(C#N)ccc2C2C3=C(CCC3=O)N(c3cccc(C(F)(F)F)c3)C(=O)N2C)C1 (some centres unmarked) [Example 1.83]
1.3 nM	CC(=O)N[C@@H]1CCN(C(=O)c2cc(C#N)ccc2C2C3=C(CCC3=O)N(c3cccc(C(F)(F)F)c3)C(=O)N2C)C1 (some centres unmarked) [Example 1.84]
4.6 nM	CC(=O)N1CCN(C(=O)c2cc(C#N)ccc2C2C3=C(CCC3=O)N(c3cccc(C(F)(F)F)c3)C(=O)N2C)CC1 (centres unmarked) [Example 1.85]
1.1 nM	CN(C)C(=O)c1cc(C#N)ccc1[C@@H]1C2=C(CCC2=O)N(c2cccc(C(F)(F)F)c2)C(=O)N1C [Example 2.2]
2.9 nM	CN1C(=O)N(c2cccc(C(F)(F)F)c2)C2=C(C(=O)CC2)[C@H]1c1ccc(C#N)cc1C(=O)N1CCOCC1 [Example 2.3]
3.1 nM	CN1CCN(C(=O)c2cc(C#N)ccc2[C@@H]2C3=C(CCC3=O)N(c3cccc(C(F)(F)F)c3)C(=O)N2C)CC1 [Example 2.4]

IC50	SMILES
7.6 nM	CN1C(=O)N(c2cccc(C(F)(F)F)c2)C2=C(C(=O)CC2)C1c1ccc(C#N)cc1C(=O)NC1CCC(O)C1 (centres unmarked) [Example 3, 5-Cyano-N-(3-hydroxy-cyclopentyl)-2-[3-methyl-2,5-dioxo-1-(3-trifluoromethyl-phenyl)-2,3,4,5,6,7-hexahydro-1H-cyclopentapyrimidin-4-yl]-benzamide]
8.1 nM	CCN1CCN(C(=O)c2cc(C#N)ccc2C2C3=C(CCC3=O)N(c3cccc(C(F)(F)F)c3)C(=O)N2C)CC1 (centres unmarked) [Example 3.2]
7.3 nM	CC(C)N1CCN(C(=O)c2cc(C#N)ccc2C2C3=C(CCC3=O)N(c3cccc(C(F)(F)F)c3)C(=O)N2C)CC1 (centres unmarked) [Example 3.4]
15.1 nM	CN1C(=O)N(c2cccc(C(F)(F)F)c2)C2=C(C(=O)CC2)C1c1ccc(C#N)cc1C(=O)N1CCC(N)CC1 (centres unmarked) [Example 4.1]
7.1 nM	CN1C(=O)N(c2cccc(C(F)(F)F)c2)C2=C(C(=O)CC2)C1c1ccc(C#N)cc1C(=O)NC1CCNCC1 (centres unmarked) [Example 4.2]
3.1 nM	CN1C(=O)N(c2cccc(C(F)(F)F)c2)C2=C(C(=O)CC2)C1c1ccc(C#N)cc1C(=O)NCCN (centres unmarked) [Example 4.3]
4.7 nM	CNCCNC(=O)c1cc(C#N)ccc1C1C2=C(CCC2=O)N(c2cccc(C(F)(F)F)c2)C(=O)N1C (centres unmarked) [Example 4.4]
6.9 nM	CN1C(=O)N(c2cccc(C(F)(F)F)c2)C2=C(C(=O)CC2)C1c1ccc(C#N)cc1C(=O)N[C@H]1CCNC1 (some centres unmarked) [Example 4.6]
3.3 nM	CN1C(=O)N(c2cccc(C(F)(F)F)c2)C2=C(C(=O)CC2)C1c1ccc(C#N)cc1C(=O)N1CC[C@H](N)C1 (some centres unmarked) [Example 4.7]
5.9 nM	CN1C(=O)N(c2cccc(C(F)(F)F)c2)C2=C(C(=O)CC2)C1c1ccc(C#N)cc1C(=O)N1CC[C@@H](N)C1 (some centres unmarked) [Example 4.8]
6.4 nM	CN1C(=O)N(c2cccc(C(F)(F)F)c2)C2=C(C(=O)CC2)C1c1ccc(C#N)cc1C(=O)N[C@@H]1CCNC1 (some centres unmarked) [Example 4.9]
6.2 nM	CN1C(=O)N(c2cccc(C(F)(F)F)c2)C2=C(C(=O)CC2)C1c1ccc(C#N)cc1C(=O)NCC(C)(C)N (centres unmarked) [Example 4.11]
3.8 nM	CN[C@H]1CCN(C(=O)c2cc(C#N)ccc2C2C3=C(CCC3=O)N(c3cccc(C(F)(F)F)c3)C(=O)N2C)C1 (some centres unmarked) [Example 4.12]
5.6 nM	CN1C(=O)N(c2cccc(C(F)(F)F)c2)C2=C(C(=O)CC2)C1c1ccc(C#N)cc1C(=O)N[C@H]1C[C@@H]1N (some centres unmarked) [Example 4.13]
4.9 nM	CN1C(=O)N(c2cccc(C(F)(F)F)c2)C2=C(C(=O)CC2)C1c1ccc(C#N)cc1C(=O)N[C@H]1C[C@H]1N (some centres unmarked) [Example 4.14]
10.8 nM	CC1CN(C(=O)c2cc(C#N)ccc2C2C3=C(CCC3=O)N(c3cccc(C(F)(F)F)c3)C(=O)N2C)CCN1 (centres unmarked) [Example 4.16]

Further lines, the compound ahead of its results:

SMILES	IC50
CN1C(=O)N(c2cccc(C(F)(F)F)c2)C2=C(C(=O)CC2)C1c1ccc(C#N)cc1C(=O)NCc1ccnnc1 (centres unmarked) [Example 1.49]	5 nM
CN1C(=O)N(c2cccc(C(F)(F)F)c2)C2=C(C(=O)CC2)C1c1ccc(C#N)cc1C(=O)NCc1cccnn1 (centres unmarked) [Example 1.50]	2.9 nM
CC(NC(=O)c1cc(C#N)ccc1C1C2=C(CCC2=O)N(c2cccc(C(F)(F)F)c2)C(=O)N1C)c1ccco1 (centres unmarked) [Example 1.51]	6.6 nM
CN1C(=O)N(c2cccc(C(F)(F)F)c2)C2=C(C(=O)CC2)C1c1ccc(C#N)cc1C(=O)NCc1cncn1C (centres unmarked) [Example 1.52]	4.2 nM
CN1C(=O)N(c2cccc(C(F)(F)F)c2)C2=C(C(=O)CC2)C1c1ccc(C#N)cc1C(=O)NCc1ccn(C)n1 (centres unmarked) [Example 1.53]	2.2 nM
CN(Cc1cn[nH]c1)C(=O)c1cc(C#N)ccc1C1C2=C(CCC2=O)N(c2cccc(C(F)(F)F)c2)C(=O)N1C (centres unmarked) [Example 1.57]	< 1 nM
CN(Cc1ccon1)C(=O)c1cc(C#N)ccc1C1C2=C(CCC2=O)N(c2cccc(C(F)(F)F)c2)C(=O)N1C (centres unmarked) [Example 1.59]	1.1 nM
CN(Cc1ccno1)C(=O)c1cc(C#N)ccc1C1C2=C(CCC2=O)N(c2cccc(C(F)(F)F)c2)C(=O)N1C (centres unmarked) [Example 1.60]	< 1 nM
CN1C(=O)N(c2cccc(C(F)(F)F)c2)C2=C(C(=O)CC2)C1c1ccc(C#N)cc1C(=O)N1Cc2ccncc2C1 (centres unmarked) [Example 1.63]	3.9 nM
CN1C(=O)N(c2cccc(C(F)(F)F)c2)C2=C(C(=O)CC2)C1c1ccc(C#N)cc1C(=O)NCc1ccc(C#N)o1 (centres unmarked) [Example 1.64]	6.9 nM
CN(Cc1ccncc1)C(=O)c1cc(C#N)ccc1C1C2=C(CCC2=O)N(c2cccc(C(F)(F)F)c2)C(=O)N1C (centres unmarked) [Example 1.65]	1.7 nM
CN1C(=O)N(c2cccc(C(F)(F)F)c2)C2=C(C(=O)CC2)C1c1ccc(C#N)cc1C(=O)N1CCn2cncc2C1 (centres unmarked) [Example 1.66]	7.1 nM
CN1C(=O)N(c2cccc(C(F)(F)F)c2)C2=C(C(=O)CC2)C1c1ccc(C#N)cc1C(=O)N1Cc2cnn(C)c2C1 (centres unmarked) [Example 1.67]	4.1 nM
CN1C(=O)N(c2cccc(C(F)(F)F)c2)C2=C(C(=O)CC2)C1c1ccc(C#N)cc1C(=O)N1CCn2ccnc2C1 (centres unmarked) [Example 1.68]	< 1 nM
CN1C(=O)N(c2cccc(C(F)(F)F)c2)C2=C(C(=O)CC2)C1c1ccc(C#N)cc1C(=O)N1CCc2nocc2C1 (centres unmarked) [Example 1.69]	9.8 nM
CN1C(=O)N(c2cccc(C(F)(F)F)c2)C2=C(C(=O)CC2)C1c1ccc(C#N)cc1C(=O)N1CCn2ncnc2C1 (centres unmarked) [Example 1.70]	1.9 nM
CN(Cc1ccnn1C)C(=O)c1cc(C#N)ccc1C1C2=C(CCC2=O)N(c2cccc(C(F)(F)F)c2)C(=O)N1C (centres unmarked) [Example 1.71]	< 1 nM
CN(Cc1cncn1C)C(=O)c1cc(C#N)ccc1C1C2=C(CCC2=O)N(c2cccc(C(F)(F)F)c2)C(=O)N1C (centres unmarked) [Example 1.72]	< 1 nM
CN(Cc1ccn(C)n1)C(=O)c1cc(C#N)ccc1C1C2=C(CCC2=O)N(c2cccc(C(F)(F)F)c2)C(=O)N1C (centres unmarked) [Example 1.73]	1.3 nM
CN(Cc1nccn1C)C(=O)c1cc(C#N)ccc1C1C2=C(CCC2=O)N(c2cccc(C(F)(F)F)c2)C(=O)N1C (centres unmarked) [Example 1.74]	< 1 nM
CN(Cc1nncn1C)C(=O)c1cc(C#N)ccc1C1C2=C(CCC2=O)N(c2cccc(C(F)(F)F)c2)C(=O)N1C (centres unmarked) [Example 1.75]	1.4 nM
CC(=O)N(C)[C@H]1CCN(C(=O)c2cc(C#N)ccc2C2C3=C(CCC3=O)N(c3cccc(C(F)(F)F)c3)C(=O)N2C)C1 (some centres unmarked) [Example 1.77]	2.3 nM
CC(=O)N(C)[C@@H]1CCN(C(=O)c2cc(C#N)ccc2C2C3=C(CCC3=O)N(c3cccc(C(F)(F)F)c3)C(=O)N2C)C1 (some centres unmarked) [Example 1.78]	2.6 nM
CN(C)CCN(C)C(=O)c1cc(C#N)ccc1C1C2=C(CCC2=O)N(c2cccc(C(F)(F)F)c2)C(=O)N1C (centres unmarked) [Example 3.1]	1.3 nM
CN1C(=O)N(c2cccc(C(F)(F)F)c2)C2=C(C(=O)CC2)C1c1ccc(C#N)cc1C(=O)N1CCN2CCCC2C1 (centres unmarked) [Example 3.3]	7.5 nM
CN1C(=O)N(c2cccc(C(F)(F)F)c2)C2=C(C(=O)CC2)C1c1ccc(C#N)cc1C(=O)N1C[C@H]2C[C@@H]1C[N+]2(C)C (some centres unmarked) [Example 3.5]	7 nM
CN(CCN)C(=O)c1cc(C#N)ccc1C1C2=C(CCC2=O)N(c2cccc(C(F)(F)F)c2)C(=O)N1C (centres unmarked) [Example 4.5]	2 nM
CNCCN(C)C(=O)c1cc(C#N)ccc1C1C2=C(CCC2=O)N(c2cccc(C(F)(F)F)c2)C(=O)N1C (centres unmarked) [Example 4.10]	1.4 nM
CN1C(=O)N(c2cccc(C(F)(F)F)c2)C2=C(C(=O)CC2)C1c1ccc(C#N)cc1C(=O)N1C[C@H]2C[C@@H]1CN2 (some centres unmarked) [Example 4.15]	7.3 nM
CN1C(=O)N(c2cccc(C(F)(F)F)c2)C2=C(C(=O)CC2)C1c1ccc(C#N)cc1C(=O)N1CC2COCC(C1)N2 (centres unmarked) [Example 4.17]	36.2 nM
